The results in this text go back to ChEMBL document CHEMBL2057090, “Discovery of novel PI3Kγ/δ inhibitors as potential agents for inflammation” (Bioorg Med Chem Lett, 2012).

≈ marks a conversion by molar mass, not a printed value. Where only a bound is given, the exact number is not on record here.

Data set [1] addresses Phosphatidylinositol 4,5-bisphosphate 3-kinase catalytic subunit alpha isoform (Homo sapiens, UniProt P42336). Briefly: Inhibition of PI3Kalpha in human HL60 cell lysate by kinobead assay.
Data set [2] in a line: Antiinflammatory activity in human neutrophils assessed as inhibition of fMLP-induced migration. The class given is functional, cell-based. The note with it: Neutrophil.
The target of data set [3] is Phosphatidylinositol 4,5-bisphosphate 3-kinase catalytic subunit beta isoform (Homo sapiens, UniProt P42338). The data set is described as follows: Inhibition of PI3Kbeta in human HL60 cell lysate by kinobead assay. The data set is classed as cell-free, HL-60.
Data set [4] has as its target T1, Phosphatidylinositol 4,5-bisphosphate 3-kinase catalytic subunit delta isoform (Homo sapiens, UniProt O00329).
T1 sequence (O00329 whole entry): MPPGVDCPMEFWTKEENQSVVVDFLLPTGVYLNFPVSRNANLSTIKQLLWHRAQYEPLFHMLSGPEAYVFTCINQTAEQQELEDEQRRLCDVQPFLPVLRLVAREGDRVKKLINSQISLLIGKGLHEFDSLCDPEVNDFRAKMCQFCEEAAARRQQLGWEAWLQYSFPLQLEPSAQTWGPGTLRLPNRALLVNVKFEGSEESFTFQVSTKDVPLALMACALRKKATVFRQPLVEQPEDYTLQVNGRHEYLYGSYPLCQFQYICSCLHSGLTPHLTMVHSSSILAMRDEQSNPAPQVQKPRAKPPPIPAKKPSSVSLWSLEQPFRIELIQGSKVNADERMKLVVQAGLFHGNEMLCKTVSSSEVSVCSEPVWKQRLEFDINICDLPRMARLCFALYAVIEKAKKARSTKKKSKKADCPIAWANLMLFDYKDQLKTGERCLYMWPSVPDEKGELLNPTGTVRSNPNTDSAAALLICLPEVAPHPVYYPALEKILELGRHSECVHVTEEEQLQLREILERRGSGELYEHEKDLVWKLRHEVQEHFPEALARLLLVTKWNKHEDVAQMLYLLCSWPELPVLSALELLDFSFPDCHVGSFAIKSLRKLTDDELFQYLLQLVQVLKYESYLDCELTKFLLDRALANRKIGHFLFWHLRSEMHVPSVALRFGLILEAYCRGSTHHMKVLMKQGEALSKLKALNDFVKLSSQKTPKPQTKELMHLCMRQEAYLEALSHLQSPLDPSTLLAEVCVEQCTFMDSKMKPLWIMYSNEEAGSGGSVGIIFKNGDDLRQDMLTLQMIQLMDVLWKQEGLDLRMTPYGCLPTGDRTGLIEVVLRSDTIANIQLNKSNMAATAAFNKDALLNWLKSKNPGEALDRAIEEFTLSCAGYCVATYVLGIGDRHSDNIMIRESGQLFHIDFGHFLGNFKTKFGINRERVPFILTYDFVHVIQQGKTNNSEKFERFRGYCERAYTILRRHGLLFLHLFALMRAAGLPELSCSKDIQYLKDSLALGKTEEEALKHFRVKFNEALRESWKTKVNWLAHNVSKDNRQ
The data set is described as follows: Inhibition of PI3Kdelta in human HL60 cell lysate by kinobead assay.

The target of data set [5] is Phosphatidylinositol 4,5-bisphosphate 3-kinase catalytic subunit gamma isoform (Homo sapiens, UniProt P48736). Briefly: Inhibition of PI3Kgamma in human HL60 cell lysate by kinobead assay.
A short description of data set [6]: Kinetic solubility in 1%DMSO solution. The data set is classed as physicochemical. As to conditions: read-out: Kinetic_solubility; call rule not given here.
Data set [7] relates to Liver microsomes. Briefly: Intrinsic clearance in rat liver microsomes assessed per g of liver. The data set is classed as ADME, Microsome.
Data set [8] is described as follows: Efflux ratio of apparent permeability across human Caco2 cells. The data set is classed as ADME, cell-based. As to conditions: Caco-2.
A short description of data set [9]: Apparent permeability from apical to basal side of human Caco2 cells. The class given is ADME, cell-based. As to conditions: Caco-2. A general note: Caco-2 monolayers are a common model of the intestinal barrier.
Data set [10] deals with Liver microsomes. The data set is described as follows: Intrinsic clearance in human liver microsomes assessed per g of liver. The data set is classed as ADME, Microsome. (In general: Liver microsomes are a subcellular fraction often used to study metabolism.)
The subject of data set [11] is Plasma. The data set is described as follows: Drug metabolism in iv dosed rat plasma assessed as CZC19945 formation. The class given is ADME, organism-based. The note with it: in vivo.
Data set [12] in a line: Clearance in iv dosed rat. The class given is ADME, organism-based. The note with it: in vivo.
For a further data set, the system named is Mus musculus. Briefly: Antiinflammatory activity in BALB/c mouse assessed as reduction in LPS-induced neutrophil accumulation in bronchoalveolar lung fluid at 0.5 mg, it administered 1 hr prior to LPS-challenge and measured after 8 hrs relative to vehicle treated control. The data set is classed as functional. On the set-up: scale not given: the % may be the effect or the level left.

Data set [13] relates to Plasma. Briefly: Drug metabolism in iv dosed rat plasma assessed as 2-(3-(6-(5-(N-tert-butylsulfamoyl)pyridin-3-yl)-[1,2,4]triazolo[1,5-a]pyridin-2-yl)ureido)acetic acid formation. The class given is ADME, organism-based. The note with it: in vivo.

Chain of Phosphatidylinositol 4,5-bisphosphate 3-kinase catalytic subunit gamma isoform (P48736 whole entry, canonical isoform): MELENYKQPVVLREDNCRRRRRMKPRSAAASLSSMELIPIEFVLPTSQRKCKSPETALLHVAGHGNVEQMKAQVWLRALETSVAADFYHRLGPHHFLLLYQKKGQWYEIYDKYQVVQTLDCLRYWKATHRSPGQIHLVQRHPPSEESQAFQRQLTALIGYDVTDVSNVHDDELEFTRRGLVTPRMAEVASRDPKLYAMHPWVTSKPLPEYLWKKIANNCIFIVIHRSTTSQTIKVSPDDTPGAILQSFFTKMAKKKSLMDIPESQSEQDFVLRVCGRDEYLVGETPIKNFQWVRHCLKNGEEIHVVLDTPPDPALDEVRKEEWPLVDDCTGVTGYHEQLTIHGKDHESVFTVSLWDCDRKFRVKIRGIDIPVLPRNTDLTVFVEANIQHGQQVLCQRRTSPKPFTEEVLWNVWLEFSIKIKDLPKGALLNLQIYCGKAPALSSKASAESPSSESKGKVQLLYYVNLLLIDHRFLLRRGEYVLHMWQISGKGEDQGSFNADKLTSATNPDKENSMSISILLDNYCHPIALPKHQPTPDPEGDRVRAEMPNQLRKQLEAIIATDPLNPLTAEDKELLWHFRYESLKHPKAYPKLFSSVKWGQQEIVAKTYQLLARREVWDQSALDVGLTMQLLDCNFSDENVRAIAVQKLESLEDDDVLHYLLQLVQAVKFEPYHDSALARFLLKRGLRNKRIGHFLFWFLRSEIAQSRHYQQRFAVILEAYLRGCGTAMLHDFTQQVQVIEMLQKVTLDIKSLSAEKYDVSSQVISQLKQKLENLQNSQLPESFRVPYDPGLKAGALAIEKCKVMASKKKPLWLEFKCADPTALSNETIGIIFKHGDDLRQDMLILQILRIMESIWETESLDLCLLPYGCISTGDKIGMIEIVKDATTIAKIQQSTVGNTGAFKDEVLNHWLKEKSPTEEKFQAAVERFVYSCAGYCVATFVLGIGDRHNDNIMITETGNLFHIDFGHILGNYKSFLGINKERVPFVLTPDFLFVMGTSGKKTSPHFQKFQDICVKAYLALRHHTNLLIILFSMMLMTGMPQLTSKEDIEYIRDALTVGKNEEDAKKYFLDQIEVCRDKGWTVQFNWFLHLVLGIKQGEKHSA
Chain of Phosphatidylinositol 4,5-bisphosphate 3-kinase catalytic subunit beta isoform (P42338 whole entry, canonical isoform): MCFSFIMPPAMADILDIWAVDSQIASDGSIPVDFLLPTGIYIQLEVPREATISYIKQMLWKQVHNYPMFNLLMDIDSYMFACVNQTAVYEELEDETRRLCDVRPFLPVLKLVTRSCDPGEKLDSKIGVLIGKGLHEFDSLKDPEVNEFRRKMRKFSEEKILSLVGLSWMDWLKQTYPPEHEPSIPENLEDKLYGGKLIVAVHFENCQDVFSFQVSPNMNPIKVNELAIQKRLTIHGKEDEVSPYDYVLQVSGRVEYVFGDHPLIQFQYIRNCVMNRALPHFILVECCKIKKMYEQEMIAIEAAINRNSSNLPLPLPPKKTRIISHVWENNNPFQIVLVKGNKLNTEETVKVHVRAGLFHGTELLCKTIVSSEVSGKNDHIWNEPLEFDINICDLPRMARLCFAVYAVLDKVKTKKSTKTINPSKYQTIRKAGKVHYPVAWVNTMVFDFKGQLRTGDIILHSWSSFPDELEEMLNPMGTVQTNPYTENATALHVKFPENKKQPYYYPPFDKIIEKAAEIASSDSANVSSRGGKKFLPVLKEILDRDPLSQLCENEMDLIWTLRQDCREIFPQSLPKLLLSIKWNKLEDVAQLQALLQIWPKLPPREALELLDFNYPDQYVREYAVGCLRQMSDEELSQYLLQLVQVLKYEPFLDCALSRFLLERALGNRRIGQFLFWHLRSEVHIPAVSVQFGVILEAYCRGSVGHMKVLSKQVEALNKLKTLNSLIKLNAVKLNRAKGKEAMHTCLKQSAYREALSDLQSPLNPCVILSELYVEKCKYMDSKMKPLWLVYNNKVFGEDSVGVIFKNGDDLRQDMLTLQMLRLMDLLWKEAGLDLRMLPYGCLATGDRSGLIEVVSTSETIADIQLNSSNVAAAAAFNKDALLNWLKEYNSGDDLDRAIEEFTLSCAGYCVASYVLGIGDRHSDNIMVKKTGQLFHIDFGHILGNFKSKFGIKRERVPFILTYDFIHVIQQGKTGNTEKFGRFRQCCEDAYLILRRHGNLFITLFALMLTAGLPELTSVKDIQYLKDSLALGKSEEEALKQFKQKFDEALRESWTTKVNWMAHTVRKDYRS
Chain of Phosphatidylinositol 4,5-bisphosphate 3-kinase catalytic subunit alpha isoform (P42336 whole entry, canonical isoform): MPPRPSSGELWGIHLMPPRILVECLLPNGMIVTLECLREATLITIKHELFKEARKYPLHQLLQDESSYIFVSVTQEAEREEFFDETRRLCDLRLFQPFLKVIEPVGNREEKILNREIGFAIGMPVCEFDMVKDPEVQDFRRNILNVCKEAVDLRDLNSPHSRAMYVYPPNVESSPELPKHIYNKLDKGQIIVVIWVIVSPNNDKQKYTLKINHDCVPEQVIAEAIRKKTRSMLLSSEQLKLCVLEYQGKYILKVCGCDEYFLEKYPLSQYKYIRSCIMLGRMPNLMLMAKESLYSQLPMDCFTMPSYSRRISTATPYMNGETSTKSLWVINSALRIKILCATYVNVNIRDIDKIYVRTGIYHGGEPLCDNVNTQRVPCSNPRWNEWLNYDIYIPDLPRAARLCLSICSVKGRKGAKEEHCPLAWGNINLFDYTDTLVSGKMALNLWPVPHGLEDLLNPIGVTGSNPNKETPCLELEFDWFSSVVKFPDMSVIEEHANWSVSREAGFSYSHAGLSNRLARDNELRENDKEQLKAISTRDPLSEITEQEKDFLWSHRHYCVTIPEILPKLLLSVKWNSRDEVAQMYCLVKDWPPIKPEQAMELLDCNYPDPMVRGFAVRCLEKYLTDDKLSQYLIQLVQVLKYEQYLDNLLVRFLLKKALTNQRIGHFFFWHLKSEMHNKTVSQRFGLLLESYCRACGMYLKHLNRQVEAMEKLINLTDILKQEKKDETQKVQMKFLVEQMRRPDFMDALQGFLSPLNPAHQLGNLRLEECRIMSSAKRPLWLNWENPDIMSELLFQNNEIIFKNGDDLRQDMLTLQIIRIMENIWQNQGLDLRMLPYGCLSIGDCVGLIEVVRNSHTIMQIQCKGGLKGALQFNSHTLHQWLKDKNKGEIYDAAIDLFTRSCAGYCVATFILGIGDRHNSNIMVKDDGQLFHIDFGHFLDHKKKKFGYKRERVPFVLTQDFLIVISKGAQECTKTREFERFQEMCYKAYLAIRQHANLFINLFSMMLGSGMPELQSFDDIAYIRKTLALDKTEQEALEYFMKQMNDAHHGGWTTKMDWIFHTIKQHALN

By IC50 is commonly meant the point on the concentration scale where inhibition reaches its midpoint. Consider `CC(C)(C)NS(=O)(=O)c1cncc(-c2ccc3nc(N)nn3c2)c1`, for which the IC50 was 2510 nM in data set [1]; 1000 nM in data set [2]; 200 nM in [3]; 1580 nM in [4]; 25.1 nM in [5].

Broadly, the efflux ratio is the permeability from basolateral to apical divided by that in the opposite direction, in the common usage. A word on the Papp A→B: it is how fast a substance crosses the layer from the apical side. Regarding `CN(C)C(=O)CNC(=O)Nc1nc2ccc(-c3cncc(S(=O)(=O)NC(C)(C)C)c3)cn2n1`, the solubility kinetic in data set [6] is below 6.5 µM. Moreover, the results for the CLint with Liver microsomes [7] and in the data set with Liver microsomes [10] were 0.9 mL/min/g and 0.5 mL/min/g, respectively. Moreover, the IC50 is 12600 nM in data set [1]; 794 nM in data set [2]; 1260 nM in data set [3]; 79.4 nM in data set [4]; 3.16 nM in data set [5]. Moreover, in data set [8], the efflux ratio came out at 109. For the same compound, the Papp A→B in [9] is 0.54 ×10⁻⁶ cm/s.

In the case of `CN1CCN(C(=O)CNC(=O)Nc2nc3ccc(-c4cncc(S(=O)(=O)NC(C)(C)C)c4)cn3n2)CC1`, the IC50 is 794 nM in data set [1]; 1260 nM in data set [2]; 1000 nM in data set [3]; 12.6 nM in [4]; 2.51 nM in data set [5].

For `CS(=O)(=O)c1cncc(-c2ccc3nc(N)nn3c2)c1`, the IC50 is 10000 nM in data set [1], 2510 nM in data set [3], 6310 nM in data set [4] and 100 nM in [5].

For orientation: clearance means a measure of how efficiently the substance is removed, as volume per time. On to `CC(C)(C)NS(=O)(=O)c1cncc(-c2ccc3nc(NC(=O)NCC(=O)N4CCOCC4)nn3c2)c1`, for which the solubility kinetic in data set [6] was above 100 µM. Moreover, the Drug metabolism result in the data set with Plasma [11] and in the data set on Plasma [13] was “Not Active” in each case. In addition, the CLint with Liver microsomes [7] stood at 0.8 mL/min/g; in the data set on Liver microsomes [10], 0 mL/min/g. Further, the IC50 in data set [1] was 398 nM; in data set [2] it was 501 nM; in data set [3], 398 nM; in data set [4], 15.8 nM; in [5] it was 3.98 nM. This compound came in with a clearance in [12] above 200 mL/min/kg. Further, the Activity with Mus musculus worked out at 34%.

Take `CC(C)(C)NS(=O)(=O)c1cncc(-c2ccc3nc(NC(=O)NCCn4nnc(C5CC5)n4)nn3c2)c1`: the solubility kinetic in data set [6] was above 100 µM. In addition, the CLint with Liver microsomes [7] came out at 0.4 mL/min/g; in the data set with Liver microsomes [10], 0 mL/min/g. For the same compound, the IC50 in [1] is 794 nM; in [2] it was 79.4 nM; in data set [3] it was 63.1 nM; in data set [4], 6.31 nM; in [5] it was 2.51 nM. In addition, the Activity in the data set on Mus musculus amounted to 37%. The efflux ratio in [8] came out at 252. In [9], the Papp A→B was 0.08 ×10⁻⁶ cm/s.

Take `CNC(=O)Nc1nc2ccc(-c3cncc(S(=O)(=O)NC(C)(C)C)c3)cn2n1`: the IC50 in data set [1] was above 5010 nM; in [2] it was 794 nM; in data set [3] it was 398 nM; in data set [4], 794 nM; in data set [5], 12.6 nM.

Turning to `Cc1noc(C)c1CCNC(=O)Nc1nc2ccc(-c3cncc(S(=O)(=O)NC(C)(C)C)c3)cn2n1`, the IC50 in data set [1] was 2000 nM; in data set [2], 251 nM; in [3], 79.4 nM; in data set [4], 12.6 nM; in data set [5], 25.1 nM.

Consider `CC(C)(C)NS(=O)(=O)c1cncc(-c2ccc3nc(NC(=O)NCCc4cnccn4)nn3c2)c1`, for which the IC50 in data set [1] is 1260 nM; in data set [2], 126 nM; in data set [3], 126 nM; in data set [4], 25.1 nM; in [5] it was 6.31 nM.

Regarding `CC(C)(C)NS(=O)(=O)c1cncc(-c2ccc3nc(NC(=O)NCCN4CCOCC4)nn3c2)c1`, the solubility kinetic in data set [6] came to 65 µM (≈ 32.7 µg/mL). Besides, the results for the CLint with Liver microsomes [7] and with Liver microsomes [10] were 0.9 mL/min/g and 1.4 mL/min/g, respectively. Besides, the IC50 in data set [1] is 1260 nM; in data set [2] it was 50.1 nM; in [3] it was above 200 nM; in data set [4], 20 nM; in [5], 15.8 nM.

As to `CNC(=O)CNC(=O)Nc1nc2ccc(-c3cncc(S(=O)(=O)NC(C)(C)C)c3)cn2n1`, the IC50 was above 15800 nM in [1]; 20000 nM in data set [2]; above 2000 nM in [3]; 794 nM in [4]; 15.8 nM in data set [5].

For the compound `CC(C)(C)NS(=O)(=O)c1cncc(-c2ccc3nc(NC(=O)NCCn4cccn4)nn3c2)c1`, the IC50 is 631 nM in [1]; 158 nM in [2]; 631 nM in data set [3]; 200 nM in data set [4]; 25.1 nM in data set [5].

For the compound `CC(C)(C)NS(=O)(=O)c1cncc(-c2ccc3nc(NC(=O)NCCCn4nnc(C5CC5)n4)nn3c2)c1`, the IC50 was above 6310 nM in data set [1]; 251 nM in [2]; 2510 nM in [3]; 50.1 nM in data set [4]; 63.1 nM in data set [5].

For `CC(C)(C)NS(=O)(=O)c1cncc(-c2ccc3nc(NC(=O)Nc4ccccc4)nn3c2)c1`, the IC50 in [1] is above 100000 nM; in [3], above 100000 nM; in [4], above 25100 nM; in data set [5] it was 251 nM.

On to `CC(C)(C)NS(=O)(=O)c1cncc(-c2ccc3nc(NC(=O)NCc4ccccc4)nn3c2)c1`, for which the IC50 in data set [1] was above 20000 nM; in data set [2] it was 1580 nM; in data set [3] it was 3160 nM; in data set [4], 1580 nM; in data set [5], 63.1 nM.

On to `CC(C)(C)NS(=O)(=O)c1cncc(-c2ccc3nc(NC(=O)NCCc4ccccc4)nn3c2)c1`, for which the IC50 in [1] was above 3160 nM; in [2], 398 nM; in data set [3], 1000 nM; in data set [4], 25.1 nM; in data set [5], 31.6 nM.

For the compound `CN(C)CCNC(=O)Nc1nc2ccc(-c3cncc(S(=O)(=O)NC(C)(C)C)c3)cn2n1`, the IC50 in [1] was above 5010 nM; in [2] it was 12600 nM; in data set [3], above 1000 nM; in data set [4] it was 1260 nM; in [5], 126 nM.

As for `CC(C)(C)NS(=O)(=O)c1cncc(-c2ccc3nc(NC(=O)N4CCOCC4)nn3c2)c1`, the IC50 was above 25100 nM in data set [1]; 7940 nM in [2]; 3980 nM in [3]; 3160 nM in data set [4]; 126 nM in data set [5].

Consider `CC(C)(C)NS(=O)(=O)c1cncc(-c2ccc3nc(NC(=O)NCC(=O)N4CCCC4)nn3c2)c1`, for which the IC50 in data set [1] was 1000 nM; in data set [2] it was 1580 nM; in data set [3], 1260 nM; in data set [4] it was 63.1 nM; in [5], 6.31 nM.

Turning to `Cc1nc(CCNC(=O)Nc2nc3ccc(-c4cncc(S(=O)(=O)NC(C)(C)C)c4)cn3n2)cs1`, the IC50 in data set [1] is 794 nM; in [2], 398 nM; in [3], above 200 nM; in data set [4], 15.8 nM; in data set [5], 7.94 nM.

Turning to `CC(C)(C)NS(=O)(=O)c1cncc(-c2ccc3nc(NC(=O)NCCc4nnc(C5CC5)o4)nn3c2)c1`, the IC50 in data set [1] was 3160 nM; in data set [2], 316 nM; in [3], 251 nM; in data set [4], 79.4 nM; in data set [5] it was 10 nM.
